Assay type in all cases: in vivo, mouse
One test deals with OVA-IgE antibody. The test is described as follows: Serum OVA-IgE antibody ELISA, allergic rhinitis mice. As to conditions: serum day 28, oral 10 mg/kg (dexamethasone 2 mg/kg), control 2.7, vehicle 69. The procedure:
(§1) A 0.2 mL dose of 50 μg ovalbumin (OVA) and 2 mg Alum mixture was administered to 6-week-old female Balb/c mice (Japan SLC Inc.) (day 0 of the example). Alum was used as an adjuvant. Seven days later and 14 days later, the Balb/c mice were immunized again with 0.2 mL injections of the above mixture. Starting on day 20, mice were orally treated with 10 mg/kg of norathyriol, 10 mg/kg of mangiferin 8a, 10 mg/kg of tofacitinib (JAK inhibitor), 2 mg/kg of dexamethasone (steroid) and 10 mg/kg of olopatadine (antihistamine) daily for 8 consecutive days. Starting on day 21, 400 μg OVA was administered intranasally, and nose-scratching behavior was measured on day 27. Note that tofacitinib, dexamethasone, and olopatadine are currently in clinical use in allergic rhinitis and were used as control drugs in this example.
Serum was collected from day 28 mice in Examples 6 and 7, and OVA-IgE antibody production was measured by enzyme-linked immunosorbent assay (ELISA). This assay was performed using a mouse OVA-IgE antibody ELISA kit (FUJIFILM Wako).
(In general: ELISA stands for enzyme-linked immunosorbent assay.)

Test [1] concerns BAFF. The test is described as follows: Serum BAFF ELISA, allergic rhinitis mice. As to conditions: OVA allergic rhinitis; serum day 28; oral 10 mg/kg (dexamethasone 2 mg/kg); control 157, vehicle 1450. The procedure:
as §1
Serum was collected from day 28 mice in Examples 6 and 7, and BAFF production was measured by enzyme-linked immunosorbent assay (ELISA). This assay was performed using a mouse BAFF ELISA kit (R&D).

The subject of test [2] is IL-17. The experiment in a line: Serum IL-17 ELISA, allergic rhinitis mice. As to conditions: OVA allergic rhinitis; serum day 28; oral 10 mg/kg (dexamethasone 2 mg/kg); control 204, vehicle 945. The procedure:
as §1
Serum was collected from day 28 mice in Examples 6 and 7, and IL-17 production was measured by enzyme-linked immunosorbent assay (ELISA). This assay was performed using a mouse IL-17 ELISA kit (R&D).

The subject of a further test is IgE antibody. The experiment in a line: Serum IgE antibody ELISA, food allergy mice. Conditions: OVA food allergy; serum day 28; oral 10 mg/kg (dexamethasone 2 mg/kg); control 56, vehicle 124. The procedure:
A 0.2 mL dose of 10 μg ovalbumin (OVA) and 1 mg Alum mixture was administered to 6-week-old female Balb/c mice (Japan SLC Inc.) (day 0 of the example). Alum was used as an adjuvant. Seven days later, the Balb/c mice were immunized again with a 0.2 mL injection of the above mixture. Starting on day 14, mice were orally treated with 10 mg/kg of norathyriol, 10 mg/kg of mangiferin 8a, 10 mg/kg of tofacitinib (JAK inhibitor), 2 mg/kg of dexamethasone (steroid) and 10 mg/kg of olopatadine (antihistamine) daily for 14 consecutive days. […]
Serum was collected from day 28 mice in Examples 21, and IgE antibody production was measured by enzyme-linked immunosorbent assay (ELISA). This assay was performed using a mouse IgE antibody ELISA kit (R&D).

Test [3] relates to BAFF. The experiment in a line: Serum BAFF ELISA, food allergy mice. As to conditions: OVA food allergy; serum day 28; oral 10 mg/kg (dexamethasone 2 mg/kg); control 134, vehicle 845. How it is done:
(§2) A 0.2 mL dose of 10 μg ovalbumin (OVA) and 1 mg Alum mixture was administered to 6-week-old female Balb/c mice (Japan SLC Inc.) (day 0 of the example). Alum was used as an adjuvant. Seven days later, the Balb/c mice were immunized again with a 0.2 mL injection of the above mixture. Starting on day 14, mice were orally treated with 10 mg/kg of norathyriol, 10 mg/kg of mangiferin 8a, 10 mg/kg of tofacitinib (JAK inhibitor), 2 mg/kg of dexamethasone (steroid) and 10 mg/kg of olopatadine (antihistamine) daily for 14 consecutive days. Starting on day 14, 10 mg OVA was administered orally every other day […], and the frequency of diarrhea was measured after the final administration on day 28. Note that tofacitinib, dexamethasone, and olopatadine are currently in clinical use in food allergy and were used as control drugs in this example.
Serum was collected from day 28 mice in Examples 21, and BAFF production was measured by enzyme-linked immunosorbent assay (ELISA). This assay was performed using a mouse BAFF ELISA kit (R&D).

The subject of another test is IL-4. The experiment in a line: Serum IL-4 ELISA, food allergy mice. Conditions: OVA food allergy; serum day 28; oral 10 mg/kg (dexamethasone 2 mg/kg); control 210, vehicle 1154. The procedure:
as §2
Serum was collected from day 28 mice in Examples 21, and IL-4 production was measured by enzyme-linked immunosorbent assay (ELISA). This assay was performed using a mouse IL-4 ELISA kit (R&D).

The test system of test [4] is IL-17. The experiment in a line: Serum IL-17 ELISA, food allergy mice. As to conditions: OVA food allergy; serum day 28; oral 10 mg/kg (dexamethasone 2 mg/kg); control 98, vehicle 875. How it is done:
as §2
Serum was collected from day 28 mice in Examples 21, and IL-17 production was measured by enzyme-linked immunosorbent assay (ELISA). This assay was performed using a mouse IL-17 ELISA kit (R&D).

In the next test the test system is IL-5. The test is described as follows: Serum IL-5 ELISA, cedar pollinosis mice. Conditions: serum day 28, oral 10 mg/kg (dexamethasone 2 mg/kg), control 77, vehicle 708. How it is done: as §1, with “of 100” for “of 50”, “μg cedar pollen” for “μg ovalbumin (OVA)”, “and 1” for “and 2”, “21, 500” for “21, 400”, “μg cedar pollen” for “μg OVA”, “in cedar pollinosis” for “in allergic rhinitis”
Serum was collected from day 28 mice in Examples 28 and 29, and IL-5 production was measured by enzyme-linked immunosorbent assay (ELISA). This assay was performed using a mouse IL-5 ELISA kit (R&D).

In test [5] the test system is IL-17. The test is described as follows: Serum IL-17 ELISA, cedar pollinosis mice. Conditions: serum day 28, oral 10 mg/kg (dexamethasone 2 mg/kg), control 18, vehicle 397. How it is done: as §1, with “of 100” for “of 50”, “μg cedar pollen” for “μg ovalbumin (OVA)”, “and 1” for “and 2”, “21, 500” for “21, 400”, “μg cedar pollen” for “μg OVA”, “in cedar pollinosis” for “in allergic rhinitis”
Serum was collected from day 28 mice in Examples 28 and 29, and IL-17 production was measured by enzyme-linked immunosorbent assay (ELISA). This assay was performed using a mouse IL-17 ELISA kit (R&D).

For the compound `O=c1c2cc(O)c(O)cc2oc2cc(O)cc(O)c12` [norathyriol, 1,3,6,7-tetrahydroxyxanthone], the “amount of OVA-IgE antibody” value in the test on OVA-IgE antibody came out at 36 U/mL. Besides, the “amount of BAFF” value in the test with BAFF [1] stood at 629 pg/mL; in the test with BAFF [3], 426 pg/mL. Further, the figures for the “amount of IL-17” value with IL-17 [2], in the test with IL-17 [4] and in the test on IL-17 [5] were 583 pg/mL, 451 pg/mL and 195 pg/mL, respectively. Further, in the test on IgE antibody, the “amount of IgE antibody” value stood at 84 ng/mL. Moreover, the “amount of IL-4” value in the test with IL-4 came out at 694 pg/mL. Also, the “amount of IL-5” value in the test with IL-5 came to 307 pg/mL.
Consider `C[C@@H]1C[C@H]2[C@@H]3CCC4=CC(=O)C=C[C@]4(C)[C@@]3(F)[C@@H](O)C[C@]2(C)[C@@]1(O)C(=O)CO` [dexamethasone], for which the “amount of OVA-IgE antibody” value with OVA-IgE antibody is 18 U/mL. Also, the “amount of BAFF” value with BAFF [1] turned out to be 266 pg/mL; in the test on BAFF [3], 251 pg/mL. Further, the “amount of IL-17” value in the test with IL-17 [2] is recorded as 227 pg/mL; in the test on IL-17 [4], 216 pg/mL; in the test on IL-17 [5], 49 pg/mL. Besides, the “amount of IgE antibody” value in the test with IgE antibody is reported as 36 ng/mL. The “amount of IL-4” value in the test with IL-4 is given as 415 pg/mL. Further, in the test with IL-5, the “amount of IL-5” value was determined as 182 pg/mL.
Take `CN(C)CC/C=C1/c2ccccc2COc2ccc(CC(=O)O)cc21` [olopatadine]: the “amount of OVA-IgE antibody” value in the test with OVA-IgE antibody amounted to 67 U/mL. The entries for the “amount of BAFF” value in the test on BAFF [1] and in the test with BAFF [3] were 1691 pg/mL and 715 pg/mL, respectively. The “amount of IL-17” value in the test with IL-17 [2] was 839 pg/mL; with IL-17 [4], 721 pg/mL; in the test on IL-17 [5] it was 172 pg/mL. In the test on IgE antibody, the “amount of IgE antibody” value worked out at 111 ng/mL. In the test with IL-4, the “amount of IL-4” value is on record as 1054 pg/mL. Further, the “amount of IL-5” value with IL-5 was 438 pg/mL.
As for `C[C@@H]1CCN(C(=O)CC#N)C[C@@H]1N(C)c1ncnc2[nH]ccc12` [tofacitinib], in the test with OVA-IgE antibody, the “amount of OVA-IgE antibody” value was found to be 50 U/mL. Besides, the “amount of BAFF” value is 1041 pg/mL in the test on BAFF [1] and 598 pg/mL in the test with BAFF [3]. For the same compound, the “amount of IL-17” value in the test on IL-17 [2] stood at 892 pg/mL; in the test with IL-17 [4], 741 pg/mL; in the test with IL-17 [5] it was 244 pg/mL. The “amount of IgE antibody” value in the test with IgE antibody is 106 ng/mL. Also, in the test on IL-4, the “amount of IL-4” value turned out to be 1015 pg/mL. The “amount of IL-5” value in the test with IL-5 is reported as 428 pg/mL.

Source of the values: patent US20260007634A1, “PHARMACEUTICAL COMPOSITIONS FOR THE TREATMENT OF ALLERGIC DISEASES” (KINKI UNIVERSITY, priority 2022, published 2026).
